Measured values from paper PMC9685055, “Biological activity of new bioactive steroids deriving from biotransformation of cortisone” (Microbial Cell Factories, 2022).

Experiments:
[1] = system: IL-8 gene expression in TNFα-stimulated HaCaT cells; test: TNFα-induced IL-8 gene expression, real-time PCR; assay type: cell-based; settings: 10 μM pretreatment 24 h, then 10 ng/mL TNFα 1 h
Procedure: (§1) HaCaT cells were cultured with Dulbecco’s modified Eagle’s medium High Glucose (Lonza, Milan, Italy) supplemented with 10% FBS, 100 U/mL penicillin, 100 μg/mL streptomycin and 2 mM L-glutamine as previously described. Cells were maintained in a humidified incubator at 37 °C with 5% CO2 and incubated until the monolayer was 80% confluent. Medium was changed every 2 days.
(§2) HaCaT cells were pretreated with or without 10 μM of both SCA and SCB for 24 h. Stock solutions of the two compounds were prepared in DMSO immediately before use and diluted to the final concentration in the culture medium. In some sets of experiments, betamethasone-17-valerate (10 µg/mL) served as a positive control; dimethyl sulfoxide (DMSO) served as a solvent control. After the pretreatments, cells were stimulated with 10 ng/mL TNFα for 1 h to induce the NFκB signaling pathway. Then, media were replaced with fresh culture medium. Cells and supernatants were collected at different time points for each set of experiments as described below.
Quantitative real-time PCR was carried out as described in detail previously. Briefly, HaCaT cells were treated as indicated above and harvested for RNA extraction 3 h after the end of the proinflammatory stimulus with TNFα. […] Quantitative real-time PCR (qPCR) was performed using SYBR green on the CFX Multicolor real-time PCR detection system (Bio-Rad, Italy). […]

[2] = system: p65 NF-κB nuclear translocation in HaCaT cells; test: TNFα-induced p65 NF-κB nuclear translocation, immunofluorescence; assay type: cell-based; settings: 10 μM pretreatment 24 h, then 10 ng/mL TNFα 1 h
Procedure: as §1, §2
Briefly, HaCaT cells were seeded on coverslips at a density of 1 × 10^5 cell/mL and incubated with DMEM high glucose supplemented with FBS 10%. Then, HaCaT cells were treated as indicated above. At the end of the proinflammatory stimulus with TNFα, cells were fixed in 4% paraformaldehyde in PBS for 30 min at 4 °C as previously described. HaCaT cells were permeabilized for 5 min at RT with PBS containing 0.2% Triton X-100. After the blocking with 1% BSA in PBS at RT for 1 h, HaCaT cells were incubated with p65 NF-κB primary antibody (1:100, sc-372; Santa Cruz Biotechnology, Inc., Dallas, Texas, USA) in PBS containing 0.5% BSA at 4 °C overnight. After washing, coverslips were incubated with appropriate secondary antibody for 1 h at RT. Nuclei were stained with 1 μg/mL DAPI (Sigma- Aldrich, Italy) for 1 min. […] Fluorescence was examined using an Epifluorescence microscope (Nikon Eclipse E800; Nikon Corporation, Surrey, UK) equipped with a plan apochromat 100 × 0.5 − 1.3 oil immersion objective and a mercury lamp source.

[3] = Photochemiluminescence (PCL-ACL) antioxidant assay; settings: 0.1 mg/mL; Trolox equivalents per g of sample
Procedure: Photochemiluminescence assay, based on the methodology of Popov and Lewin [35], was performed to measure the antioxidant activity of cortisone, SCA and SCB compounds against superoxide anion radicals generated from luminol, a photosensitizer, when exposed to UV light at λmax = 351 nm. The antioxidant activity of compounds was measured using ACL kits (Analytic Jena, Jena, Germany) with a Photochem apparatus (Analytic Jena, Jena, Germany). In the PCL-ACL assay, the photochemical generation of free radicals is combined with the sensitive detection using chemiluminescence. In ACL studies, the kinetic light emission curve was monitored for 3 min and expressed as mM Trolox equivalents. The areas under the curves were calculated using the PCL soft control and analysis software. […] The observed inhibition of the signal was plotted against the concentration of Trolox added to the assay medium. The concentration of the added sample was such that the generated luminescence during the 3 min sampling interval fell within the limits of the standard curve. For ACL assay, 2.3 mL of reagent 1 (solvent and dilution reagent, methanol), 0.2 mL of reagent 2 (buffer solution), 25 μL of reagent 3 (photosensitizer: luminol 1 mmol L^−1), and 10 μL of standard or sample solution were mixed and measured. Luminol is used as a photosensitizer and as a detecting substance for free radicals. Trolox were used for the standard calibration curve from […].

cyclooxygenase (COX) = biological target: T1, cyclooxygenase (COX) (Ovis aries, UniProt P05979); test: Cyclooxygenase inhibitory assay (fluorescence COX activity kit); assay type: biochemical; settings: purified COX preparation, 0.1, 1, 10 and 100 µM, 5 min at 25 °C
T1 construct: purchased Cayman 700200
T1 sequence (P05979 25-600): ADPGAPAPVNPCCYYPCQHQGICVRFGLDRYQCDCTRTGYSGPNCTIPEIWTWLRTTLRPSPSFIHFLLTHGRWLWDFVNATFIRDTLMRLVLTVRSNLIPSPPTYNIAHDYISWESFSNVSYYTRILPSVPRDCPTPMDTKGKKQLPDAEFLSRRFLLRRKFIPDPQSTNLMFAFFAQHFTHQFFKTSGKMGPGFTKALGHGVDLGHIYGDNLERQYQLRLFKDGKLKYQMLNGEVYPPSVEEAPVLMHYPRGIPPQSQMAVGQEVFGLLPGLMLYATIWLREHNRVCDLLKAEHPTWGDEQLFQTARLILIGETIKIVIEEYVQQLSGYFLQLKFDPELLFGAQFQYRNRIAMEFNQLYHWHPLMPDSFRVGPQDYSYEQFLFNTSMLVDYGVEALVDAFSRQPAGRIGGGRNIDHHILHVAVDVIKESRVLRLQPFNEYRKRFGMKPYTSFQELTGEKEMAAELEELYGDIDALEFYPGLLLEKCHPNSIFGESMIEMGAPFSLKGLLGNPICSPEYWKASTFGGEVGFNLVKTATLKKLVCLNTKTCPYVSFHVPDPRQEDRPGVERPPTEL
Procedure: Cyclooxygenase (COX) activity assay was determined by using a fluorescence COX activity assay kit (Cayman, No. 700200) for detecting COX-1 and COX-2 activity in purified enzyme and tissue homogenate preparations. The assay was conducted by monitoring the appearance of fluorescent compound resofurin in accordance to the supplier recommendation. Aspirin (acetylsalicylic acid; 50 µM) served as positive control. The test compounds were dissolved in 1–2% DMSO (v/v) at 4 different concentrations (0.1, 1, 10 and 100 µM) and added to a purified COX preparation. A 1–2% DMSO solution was added to control plates. The plates were shaken for a few seconds and incubated for 5 min at 25 °C. The fluorescence was measured by using an excitation wavelength of 540 nm and an emission wavelength of 590 nm. Average fluorescent values were calculated for all the samples (n = 3/group) in order to determine the percentage of inhibition in respect to control (i.e. untreated) plates.

| SMILES | effect on TNFα-triggered IL-8 mRNA upregulation [1] | effect on TNFα-stimulated translocation of p65 to the nucleus [2] | antioxidant capacity, PCL-ACL assay [3] [µmol/g] | effect on COX activity (cyclooxygenase (COX)) |
| --- | --- | --- | --- | --- |
| Cc1ccc(O)c2c1CCC1C3CC[C@](O)(C(=O)CO)[C@@]3(C)CC(=O)[C@@]21O (stereo partly drawn) [SCA, 1,9β,17,21‐tetrahydoxy‐4‐methyl‐19‐nor‐9β‐pregna‐1,3,5(10)‐trien‐11,20‐dione] | completely abolish | barely affected | 1375 | barely affected COX activity only at the lower concentration tested (0.1 µM) |
| Cc1ccc(O)c2c1CCC1C3CC[C@](O)([C@H](O)CO)[C@@]3(C)CC(=O)[C@@]21O (stereo partly drawn) [SCB, 1,9β,17,20β,21‐ pentahydoxy‐4‐methyl‐19‐nor‐9β‐pregna‐1,3,5(10)‐trien‐11‐one] | completely abolish | showed the ability in counteracting the proinflammatory stimulus | 1265 | inhibited COX activity at all concentrations tested in a dose-dependent trend |
